Assay results: patent US8323911B2, “High throughput assay for discovering new inhibitors of the GIRK1/4 channel” (University of South Carolina, priority 2010, dated 2012)
One block for each molecule: values may come before it. Ends that are not written are not given here.

Experiments:
GIRK1/4 channel = target: T1, GIRK1/4 channel (Mus musculus, UniProt P48545+P63250); assay: GIRK1/4 channel FLIPR assay (DiBAC4(3) fluorescence, carbachol-stimulated HL-1 cells); format: cell-based; settings: for IC50: 5 min pretreatment, read-out: IC50 for drug block of the carbachol signal; for inhibition of the carbachol signal during pretreatment: 1 μM; for block of the carbachol-sensitive fluorescence signal: at the concentrations tested
T1 construct: consistent with the expression of GIRK1/4 channels in the HL-1 cells; endogenous in cells; host or cells: HL-1 immortalized cardiac atrial cells
T1 sequence (P63250 1-501): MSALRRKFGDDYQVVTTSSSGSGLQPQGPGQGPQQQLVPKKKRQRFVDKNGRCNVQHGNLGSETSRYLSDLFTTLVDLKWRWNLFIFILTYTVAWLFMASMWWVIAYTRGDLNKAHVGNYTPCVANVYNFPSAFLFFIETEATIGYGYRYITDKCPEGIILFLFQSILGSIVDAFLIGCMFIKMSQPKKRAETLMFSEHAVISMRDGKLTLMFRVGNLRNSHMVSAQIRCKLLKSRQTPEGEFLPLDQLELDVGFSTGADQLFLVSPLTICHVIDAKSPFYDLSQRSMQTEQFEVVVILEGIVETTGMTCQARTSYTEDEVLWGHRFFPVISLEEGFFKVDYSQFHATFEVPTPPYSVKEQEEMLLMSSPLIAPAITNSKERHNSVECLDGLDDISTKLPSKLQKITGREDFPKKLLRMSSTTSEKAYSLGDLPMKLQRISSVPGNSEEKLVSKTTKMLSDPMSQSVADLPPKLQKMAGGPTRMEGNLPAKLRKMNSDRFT
T1 sequence (P48545 1-419): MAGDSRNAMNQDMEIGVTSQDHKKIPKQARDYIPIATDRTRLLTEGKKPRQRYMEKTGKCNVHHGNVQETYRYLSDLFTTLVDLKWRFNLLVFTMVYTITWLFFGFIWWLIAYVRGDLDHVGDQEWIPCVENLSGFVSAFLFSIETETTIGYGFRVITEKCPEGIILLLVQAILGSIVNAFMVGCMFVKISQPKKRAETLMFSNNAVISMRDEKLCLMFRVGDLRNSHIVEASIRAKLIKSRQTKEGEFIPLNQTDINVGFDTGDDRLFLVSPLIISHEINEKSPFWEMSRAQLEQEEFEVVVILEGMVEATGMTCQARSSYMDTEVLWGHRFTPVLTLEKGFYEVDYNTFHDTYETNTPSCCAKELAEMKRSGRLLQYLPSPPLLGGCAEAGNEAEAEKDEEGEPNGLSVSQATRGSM
Description: HL-1 cells were incubated for 1 h in Tyrode's solution containing 5 μM DiBAC4(3) (AnaSpec, Fremont, Calif.) and fluorescent signals recorded using a Synergy2 microplate reader (BioTek, Winosski, Vt.) at 28° C. Test compounds were dissolved in DMSO at a stock concentration of 10 mM, diluted to various concentrations, and applied to the cells for 5 min prior to the fluorescent measurements. DiBAC4(3) was present in all experimental solutions. DMSO, up to 1% in Tyrode's solution, had no adverse effects on the cell response. Carbachol or control solution (20 μL) was added to each well (total volume=220 μL) at time zero using the Synergy2 injector system. Data points were collected at 10-s intervals over a 300-s sampling period at excitation and emission wavelengths of 480 and 520 nm, respectively. Positive (carbachol or carbachol+1 mM BaCl2) and negative (water or DMSO) control experiments were performed to calculate Z′ factors. The Z′ factor is defined as Z′=1=−(3σP+3σN)/|μP−μN|, where μP and μN are the means of the positive control and negative control signals, and σp and σN are the standard deviations of the positive control and negative control signals, respectively. Plates used for Z′ factor determination contained 2 rows each of positive and negative controls. Dose-response curves for selected compounds were obtained and drug potencies determined by fitting the data with the following curve: Max/(1+([drug]/IC50)^k), where the IC50 is the concentration of the compound producing a 50% decrease in the maximal carbachol response (Max), and k is the slope factor. Interference of the test compounds with the DiBAC4(3) fluorescence was determined in the absence of cells by adding various concentrations of the compounds to Tyrode's solution containing the dye.

IK,Ach (GIRK1/4 channel) = target: T2, IK,Ach (GIRK1/4 channel) (Mus musculus, UniProt P48545+P63250); assay: Patch-clamp recording of whole-cell IK,Ach currents in HL-1 cells; format: cell-based
T2 construct: consistent with the expression of GIRK1/4 channels in the HL-1 cells; endogenous in cells; host or cells: HL-1 immortalized cardiac atrial cells
T2 sequence (P63250 1-501): T1 sequence (P63250 1-501)
T2 sequence (P48545 1-419): T1 sequence (P48545 1-419)
Source text: A patch-clamp method was used to record the whole-cell IK,Ach using L/M EPC-7 (Adams & List Associates, Great Neck, N.Y.) and Axopatch 200 (Axon Instruments, Sunnyvale, Calif.) amplifiers. The procedures for measuring cardiac K^+ channels have been described in Walsh K B, Zhang J: Neonatal rat cardiac fibroblasts express three types of voltage-gated K^+ channels: regulation of a transient outward current by protein kinase C, Am J Physiol Heart Circ Physiol 2008; 294:H1010-H1017, incorporated by reference herein. Pipettes were made from borosilicate glass capillaries (World Precision Instruments, Sarasota, Fla.) and had resistances of 1 to 2 Mohms when filled with internal solution. All experiments were conducted on isolated, noncoupled HL-1 cells at room temperature (22-24° C.). For the measurement of IK,Ach, cells were placed in a normal Tyrode's solution consisting of 132 mM NaCl, 5 mM KCl, 1 mM CaCl2, 1 mM MgCl2, 5 mM dextrose, and 5 mM HEPES (pH 7.4; with NaOH) (280 mOsm). INa was blocked with tetrodotoxin (10 μM) and the Na^+ channels inactivated by maintaining the myocytes at a holding potential of −40 mV. L-type Ca^2+ channels were blocked with 500 nM nisoldipine. The internal solution was made from 50 mM KCl, 60 mM K^+-glutamate, 2 mM MgCl2, 1 mM CaCl2, 11 mM EGTA, 3 mM adenosine triphosphate (ATP), and 10 mM HEPES (pH 7.3; with KOH) (280 mOsm).
Membrane currents were recorded with 12-bit analog/digital converters (Axon Instruments). Data were sampled at 5 KHz and filtered at 1 KHz with a low-pass Bessel filter (Frequency Devices, Ottawa, Ill.). Series resistance was compensated to give the fastest possible capacity transient without producing oscillations. With this procedure, more than 70% of the series resistance could be compensated. Following the measurement of the HL-1 cell background current, IK,Ach was activated by the addition 10 μM carbachol using a rapid perfusion system. IK,Ach was defined as the BaCl2-sensitive current (see FIGS. 1A-1C, illustrating expression of GIRK1/4 channels in HL-1 cells). IK,Ach blockers were added and inhibition determined immediately after carbachol-induced activation. This limited errors in quantifying drug block due to GIRK1/4 channel desensitization and rundown. Averaged current values presented are means±SE.

GIRK channels = settings: HEK-293 cells; cited from earlier work
IK,Ach = settings: patch clamp analysis; read-out: IC50 measured in primary cultures of guinea pig atrial myocytes; cited from earlier work

Molecule: [Ba+2].[Cl-].[Cl-] [BaCl2]
- block of the carbachol signal (GIRK1/4 channel; 1 mM): blocked
- block of carbachol-activated inward rectifying current (IK,Ach (GIRK1/4 channel); 0.5 mM BaCl2): completely blocked

Molecule: N/C(=N\C(=O)c1nc(Cl)c(N)nc1N)NCc1ccc(Cl)c(Cl)c1 [DCB, dichlorobenzamil]
- IC50 (GIRK1/4 channel; HL-1 cells, DiBAC4(3)): 20 µM

Molecule: CCN(c1nc(N)c(C(=O)N=C(N)N)nc1Cl)C(C)C [EIPA, 5-(N-ethyl-N-isopropyl)-amiloride]
- IC50 (GIRK1/4 channel; HL-1 cells, DiBAC4(3)): 0.8 µM

Molecule: NC(N)=NC(=O)c1nc(Cl)c(N2CCCCCC2)nc1N [HMA, 5-(N,N-hexamethylene)-amiloride]
- IC50 (GIRK1/4 channel; HL-1 cells, DiBAC4(3)): 0.9 µM

Molecule: CC(C)N(C)c1nc(N)c(C(=O)N=C(N)N)nc1Cl [MIBA, 5-(N-methyl-N-isopropyl)-amiloride]
- IC50 (GIRK1/4 channel; HL-1 cells, DiBAC4(3)): 2 µM

Molecule: COc1ccc(CC(=O)Nc2cc3c(cc2[N+](=O)[O-])OC(C)(C)[C@H](O)[C@H]3NC2CC2)cc1 [NIP-142]
- concentrations blocking GIRK channels (GIRK channels): nanomolar concentrations

Molecule: CC(C)(C)NCC(O)COc1ccccc1C(=O)CCc1ccccc1 (centres unmarked) [TBPP, 1-{2-[3-(tert-butylamino)-2-hydroxypropoxy]phenyl}-3-phenyl-1-propanone]
- IC50 (GIRK1/4 channel; HL-1 cells, DiBAC4(3)): 2 µM

Molecule: CN1[C@@H]2CC[C@H]1C[C@@H](OC(=O)C(CO)c1ccccc1)C2 (some centres unmarked) [atropine]
- inhibition of the carbachol signal during pretreatment (GIRK1/4 channel): inhibited

Molecule: CN1[C@@H]2C[C@@H](OC(=O)[C@H](CO)c3ccccc3)C[C@H]1[C@@H]1O[C@@H]12 [scopolamine]
- inhibition of the carbachol signal during pretreatment (GIRK1/4 channel): inhibited

Molecule: [5-(2-methyl-5-fluorophenyl)furan-2-ylcarbonyl]guanidine [KR-32568]
- change in the carbachol-sensitive fluorescence (GIRK1/4 channel; drug concentrations up to 1 μM): no significant change

Molecule: tertiapin (ALCNCNRIIIPHMCWKKCGKK; ends and bridges not checked; cysteine pairing not given here; UniProt P56587 1-21, looked up) [Kir toxin]
- block of IK,Ach current (IK,Ach (GIRK1/4 channel); 100 nM): strongly blocked

More lines, main results first:

- block of the carbachol-sensitive signal (GIRK1/4 channel; concentrations up to 100 μM): only a partial block
Molecule: N=C(N)NC(=O)c1nc(Cl)c(N)nc1N [amiloride]

- IC50 (GIRK1/4 channel; HL-1 cells, DiBAC4(3)): 13 µM
Molecule: NC(=NCc1ccccc1)NC(=O)c1nc(Cl)c(N)nc1N [benzamil]

- peak carbachol-induced fluorescent signal (F/FO) (GIRK1/4 channel; 10 μM carbachol, mean±SD, 4 plates): 0.956±0.008
- EC50 (GIRK1/4 channel; HL-1 cells, DiBAC4(3), read-out: EC50 for the carbachol-sensitive fluorescent signal (activation of GIRK1/4 channel)): 0.11 µM
- carbachol-mediated decrease in the fluorescent signal (GIRK1/4 channel; [K]o increased to 20 mM): completely eliminated
- fold increase in the carbachol-sensitive signal (GIRK1/4 channel; extracellular K+ reduced from 5 mM to 1 mM, 3 plates): 2.0±0.1 fold
Molecule: C[N+](C)(C)CCOC(N)=O [carbachol]

- IC50 (GIRK1/4 channel; HL-1 cells, DiBAC4(3)): 56 µM
- block of IK,Ach current (IK,Ach (GIRK1/4 channel); 100 μM): strongly blocked
Molecule: O=C(NCC1CCCCN1)c1cc(OCC(F)(F)F)ccc1OCC(F)(F)F (centres unmarked) [flecainide]
- IC50 (IK,Ach): 20 µM

- block of the carbachol-sensitive fluorescence signal (GIRK1/4 channel): no block
Molecule: COc1ccc(Cl)cc1C(=O)NCCc1ccc(S(=O)(=O)NC(=O)NC2CCCCC2)cc1 [glybenclamide]

- IC50 (GIRK1/4 channel; HL-1 cells, DiBAC4(3)): 16 µM
Molecule: CCCCCCCN(CC)CCCC(O)c1ccc(NS(C)(=O)=O)cc1 (centres unmarked) [ibutilide]

- IC50 (GIRK1/4 channel; HL-1 cells, DiBAC4(3)): 13 µM
Molecule: NC(=Nc1ccccc1)NC(=O)c1nc(Cl)c(N)nc1N [phenamil]

- block of the carbachol-sensitive fluorescence signal (GIRK1/4 channel): no block
Molecule: CCN(CC)CCNC(=O)c1ccc(N)cc1 [procainamide]

- IC50 (GIRK1/4 channel; HL-1 cells, DiBAC4(3)): 3 µM
- IC50 (IK,Ach (GIRK1/4 channel); patch clamp, measured at −100 mV, 10 μM carbachol, read-out: IC50 for block of IK,Ach current): 2 µM
Molecule: CCCNCC(O)COc1ccccc1C(=O)CCc1ccccc1 (centres unmarked) [propafenone]

- IC50 (GIRK1/4 channel; HL-1 cells, DiBAC4(3)): 24 µM
Molecule: C=C[C@H]1C[N@@]2CC[C@H]1C[C@@H]2[C@@H](O)c1ccnc2ccc(OC)cc12 [quinidine]

- block of the carbachol-sensitive fluorescence signal (GIRK1/4 channel): no block
Molecule: CC(C)NCC(O)c1ccc(NS(C)(=O)=O)cc1 (centres unmarked) [sotalol]
